According to ChEMBL document CHEMBL3817844 (Medchemcomm, 2016):

What was measured:
Schistosoma mansoni [1] = test: Antischistosomal activity against newly transformed Schistosoma mansoni BH assessed as decrease in viability after 72 hrs by resazurin-based spectrophotometric assay; type: functional, organism-based
Schistosoma mansoni [2] = test: Antischistosomal activity against adult female Schistosoma mansoni BH derived from infected Swiss mouse assessed as reduction in motility measured immediately after treatment by automated image-based analysis; type: functional, organism-based
Schistosoma mansoni [3] = test: Antischistosomal activity against adult female Schistosoma mansoni BH derived from infected Swiss mouse assessed as reduction in motility measured after 24 hrs by automated image-based analysis; type: functional, organism-based
Schistosoma mansoni [4] = test: Antischistosomal activity against adult female Schistosoma mansoni BH derived from infected Swiss mouse assessed as reduction in motility measured after 48 hrs by automated image-based analysis; type: functional, organism-based
Schistosoma mansoni [5] = test: Antischistosomal activity against adult female Schistosoma mansoni BH derived from infected Swiss mouse assessed as reduction in motility measured after 72 hrs by automated image-based analysis; type: functional, organism-based
Schistosoma mansoni [6] = test: Antischistosomal activity against adult male Schistosoma mansoni BH derived from infected Swiss mouse assessed as reduction in motility measured immediately after treatment by automated image-based analysis; type: functional, organism-based
Schistosoma mansoni [7] = test: Antischistosomal activity against adult male Schistosoma mansoni BH derived from infected Swiss mouse assessed as reduction in motility measured after 24 hrs by automated image-based analysis; type: functional, organism-based
Schistosoma mansoni [8] = test: Antischistosomal activity against adult male Schistosoma mansoni BH derived from infected Swiss mouse assessed as reduction in motility measured after 48 hrs by automated image-based analysis; type: functional, organism-based
Schistosoma mansoni [9] = test: Antischistosomal activity against adult male Schistosoma mansoni BH derived from infected Swiss mouse assessed as reduction in motility measured after 72 hrs by automated image-based analysis; type: functional, organism-based
[10] = Inhibition of Schistosoma mansoni SERT

**Q.** What does the source list for `Fc1ccc([C@@H]2CCNC[C@H]2COc2ccc3c(c2)OCO3)cc1` [PAROXETINE]?
**A.** IC50 (Schistosoma mansoni [1]): 2500 nM; EC50 (Schistosoma mansoni [2]): 17400 nM; EC50 (Schistosoma mansoni [3]): 9900 nM; EC50 (Schistosoma mansoni [4]): 11500 nM; EC50 (Schistosoma mansoni [5]): 11900 nM; EC50 (Schistosoma mansoni [6]): 23500 nM; EC50 (Schistosoma mansoni [7]): 5100 nM; EC50 (Schistosoma mansoni [8]): 3800 nM; EC50 (Schistosoma mansoni [9]): 2700 nM; IC50 [10]: 90 nM

**Q.** Which EC50 (Schistosoma mansoni [2]) does the source give for `O=C(C1CCCCC1)N1CC(=O)N2CCc3ccccc3C2C1` (stereo unspecified) [PRAZIQUANTEL] here?
**A.** 130 nM

**Q.** And the EC50 (Schistosoma mansoni [3])?
**A.** 300 nM

**Q.** What about the EC50 (Schistosoma mansoni [5]) of the same molecule?
**A.** 660 nM

**Q.** What about the EC50 (Schistosoma mansoni [6]) of the same molecule?
**A.** 110 nM

**Q.** And the EC50 (Schistosoma mansoni [7])?
**A.** 120 nM

**Q.** And the EC50 (Schistosoma mansoni [8])?
**A.** 130 nM
